Data taken from the NIST ThermoML archive (doi:10.1016/j.jct.2011.02.008).
Numbers after ± are expanded uncertainties.

Assay: xn = mol fraction of the nth substance listed
Conditions: Liquid, Vibrating tube method

COC(=O)c1ccccc1 [methyl benzoate] + C1CCCCC1
mass density [kg/m3]
Conditions	x1 = 0.0985	x1 = 0.1963	x1 = 0.2939	x1 = 0.3942	x1 = 0.4955	x1 = 0.596	x1 = 0.6975	x1 = 0.7993	x1 = 0.8982
298.15 K, 10000 kPa	–	–	–	–	–	–	–	1031.4 ± 2.4	1060 ± 2.4
298.15 K, 15000 kPa	817.1 ± 2.4	848.6 ± 2.4	880.1 ± 2.4	911.7 ± 2.4	943.2 ± 2.4	974.8 ± 2.4	1005.4 ± 2.4	1034.6 ± 2.4	1063.1 ± 2.4
298.15 K, 20000 kPa	820.8 ± 2.4	852.2 ± 2.4	883.7 ± 2.4	915.2 ± 2.4	946.6 ± 2.4	978.2 ± 2.4	1008.5 ± 2.4	1037.7 ± 2.4	1066.1 ± 2.4
298.15 K, 25000 kPa	824.4 ± 2.4	855.8 ± 2.4	887.2 ± 2.4	918.6 ± 2.4	949.9 ± 2.4	981.4 ± 2.4	1011.7 ± 2.4	1040.7 ± 2.4	1069 ± 2.4
298.15 K, 30000 kPa	827.9 ± 2.4	859.2 ± 2.4	890.5 ± 2.4	921.9 ± 2.4	953.1 ± 2.4	984.5 ± 2.4	1014.7 ± 2.4	1043.6 ± 2.4	1071.9 ± 2.4
298.15 K, 35000 kPa	831.2 ± 2.4	862.5 ± 2.4	893.8 ± 2.4	925 ± 2.4	956.2 ± 2.4	987.5 ± 2.4	1017.7 ± 2.4	1046.5 ± 2.4	1074.7 ± 2.4
298.15 K, 40000 kPa	834.4 ± 2.4	865.7 ± 2.4	896.9 ± 2.4	928.1 ± 2.4	959.2 ± 2.4	990.5 ± 2.4	1020.5 ± 2.4	1049.3 ± 2.4	1077.4 ± 2.4
298.15 K, 45000 kPa	837.5 ± 2.4	868.8 ± 2.4	900 ± 2.4	931.1 ± 2.4	962.1 ± 2.4	993.4 ± 2.4	1023.3 ± 2.4	1052.1 ± 2.4	1080.1 ± 2.4
298.15 K, 50000 kPa	840.5 ± 2.4	871.8 ± 2.4	902.9 ± 2.4	934 ± 2.4	965 ± 2.4	996.2 ± 2.4	1026.1 ± 2.4	1054.7 ± 2.4	1082.7 ± 2.4
298.15 K, 55000 kPa	843.4 ± 2.4	874.7 ± 2.4	905.8 ± 2.4	936.9 ± 2.4	967.8 ± 2.4	999 ± 2.4	1028.8 ± 2.4	1057.4 ± 2.4	1085.3 ± 2.4
298.15 K, 60000 kPa	846.1 ± 2.4	877.3 ± 2.4	908.6 ± 2.4	939.5 ± 2.4	970.3 ± 2.4	1001.4 ± 2.4	1031.3 ± 2.4	1059.9 ± 2.4	1087.8 ± 2.4
308.15 K, 100 kPa	795.4 ± 2.4	827 ± 2.4	858.8 ± 2.4	890.8 ± 2.4	922.6 ± 2.4	954.7 ± 2.4	985.6 ± 2.4	1015.2 ± 2.4	1044.1 ± 2.4
308.15 K, 1000 kPa	796.2 ± 2.4	827.8 ± 2.4	859.6 ± 2.4	891.5 ± 2.4	923.4 ± 2.4	955.4 ± 2.4	986.3 ± 2.4	1015.9 ± 2.4	1044.7 ± 2.4
308.15 K, 5000 kPa	799.8 ± 2.4	831.2 ± 2.4	863.1 ± 2.4	894.9 ± 2.4	926.6 ± 2.4	958.5 ± 2.4	989.3 ± 2.4	1018.7 ± 2.4	1047.5 ± 2.4
308.15 K, 10000 kPa	804.3 ± 2.4	835.7 ± 2.4	867.2 ± 2.4	898.9 ± 2.4	930.5 ± 2.4	962.3 ± 2.4	992.9 ± 2.4	1022.2 ± 2.4	1050.8 ± 2.4
308.15 K, 15000 kPa	808.3 ± 2.4	839.8 ± 2.4	871.2 ± 2.4	902.8 ± 2.4	934.2 ± 2.4	965.9 ± 2.4	996.4 ± 2.4	1025.6 ± 2.4	1054.1 ± 2.4
308.15 K, 20000 kPa	812.3 ± 2.4	843.6 ± 2.4	875 ± 2.4	906.5 ± 2.4	937.8 ± 2.4	969.4 ± 2.4	999.8 ± 2.4	1028.8 ± 2.4	1057.2 ± 2.4
308.15 K, 25000 kPa	816.1 ± 2.4	847.3 ± 2.4	878.7 ± 2.4	910 ± 2.4	941.3 ± 2.4	972.8 ± 2.4	1003 ± 2.4	1032 ± 2.4	1060.3 ± 2.4
308.15 K, 30000 kPa	819.7 ± 2.4	850.9 ± 2.4	882.2 ± 2.4	913.5 ± 2.4	944.6 ± 2.4	976 ± 2.4	1006.2 ± 2.4	1035 ± 2.4	1063.3 ± 2.4
308.15 K, 35000 kPa	823.2 ± 2.4	854.4 ± 2.4	885.6 ± 2.4	916.8 ± 2.4	947.9 ± 2.4	979.2 ± 2.4	1009.3 ± 2.4	1038 ± 2.4	1066.2 ± 2.4
308.15 K, 40000 kPa	826.5 ± 2.4	857.7 ± 2.4	888.9 ± 2.4	920 ± 2.4	951 ± 2.4	982.3 ± 2.4	1012.3 ± 2.4	1041 ± 2.4	1069 ± 2.4
308.15 K, 45000 kPa	829.8 ± 2.4	861 ± 2.4	892.1 ± 2.4	923.2 ± 2.4	954.1 ± 2.4	985.3 ± 2.4	1015.2 ± 2.4	1043.8 ± 2.4	1071.8 ± 2.4
308.15 K, 50000 kPa	833 ± 2.4	864.1 ± 2.4	895.1 ± 2.4	926.2 ± 2.4	957.1 ± 2.4	988.2 ± 2.4	1018.1 ± 2.4	1046.6 ± 2.4	1074.6 ± 2.4
308.15 K, 55000 kPa	836 ± 2.4	867.1 ± 2.4	898.2 ± 2.4	929.2 ± 2.4	960 ± 2.4	991.1 ± 2.4	1020.9 ± 2.4	1049.3 ± 2.4	1077.2 ± 2.4
308.15 K, 60000 kPa	838.8 ± 2.4	869.5 ± 2.4	900.9 ± 2.4	931.9 ± 2.4	962.7 ± 2.4	993.7 ± 2.4	1023.4 ± 2.4	1051.9 ± 2.4	1079.9 ± 2.4
318.15 K, 100 kPa	785.8 ± 2.4	817.4 ± 2.4	849.2 ± 2.4	881.3 ± 2.4	913.1 ± 2.4	945.2 ± 2.4	976.1 ± 2.4	1005.8 ± 2.4	1034.6 ± 2.4
318.15 K, 1000 kPa	786.8 ± 2.4	818.3 ± 2.4	850.1 ± 2.4	882.1 ± 2.4	913.9 ± 2.4	945.9 ± 2.4	976.8 ± 2.4	1006.5 ± 2.4	1035.2 ± 2.4
318.15 K, 5000 kPa	790.7 ± 2.4	822 ± 2.4	853.8 ± 2.4	885.7 ± 2.4	917.3 ± 2.4	949.3 ± 2.4	980 ± 2.4	1009.5 ± 2.4	1038.2 ± 2.4
318.15 K, 10000 kPa	795.2 ± 2.4	826.6 ± 2.4	858.2 ± 2.4	889.9 ± 2.4	921.4 ± 2.4	953.2 ± 2.4	983.8 ± 2.4	1013.1 ± 2.4	1041.7 ± 2.4
318.15 K, 15000 kPa	799.7 ± 2.4	830.9 ± 2.4	862.4 ± 2.4	893.9 ± 2.4	925.4 ± 2.4	957 ± 2.4	987.5 ± 2.4	1016.7 ± 2.4	1045.1 ± 2.4
318.15 K, 20000 kPa	803.8 ± 2.4	835.1 ± 2.4	866.4 ± 2.4	897.8 ± 2.4	929.1 ± 2.4	960.7 ± 2.4	991 ± 2.4	1020.1 ± 2.4	1048.4 ± 2.4
318.15 K, 25000 kPa	807.8 ± 2.4	839 ± 2.4	870.2 ± 2.4	901.5 ± 2.4	932.7 ± 2.4	964.2 ± 2.4	994.4 ± 2.4	1023.3 ± 2.4	1051.6 ± 2.4
318.15 K, 30000 kPa	811.6 ± 2.4	842.8 ± 2.4	–	–	–	–	–	–	–
